Assay results taken from patent publication US20230081426A1, “COMPOUNDS AND METHODS FOR KRAS MODULATION AND INDICATIONS THEREFOR” (Plexxikon Inc., priority 2020, published 2023).

Columns and labels:
[1] = biological target: T1, G12D-mutant human KRAS (amino acid residues 1-188) (Homo sapiens, UniProt P01116, G12D); assay: KRAS Binding Disruption Assay (AlphaScreen; biotinylated KRpep-2d analogue or RAF1-RBD), G12D; conditions: KRAS G12D; geometric mean; read-out: KRAS GMean IC50 (uM) MUTATION: G12D
T1 construct: G12D or G12C-mutant human KRAS (amino acid residues 1-188) with FLAG tag; made in house; host or cells: E. coli
Outline: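 Displacement format with mutant KRAS, biotinylated KRpep-2d analogue or RAF1-RBD (5-20 nM each) at pH 7.5 with 5 mM MgCl2.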

[2] = biological target: T2, G12V-mutant human KRAS (amino acid residues 1-188) (Homo sapiens, UniProt P01116, G12V); assay: KRAS Binding Competition Assay (AlphaScreen; biotinylated KRpep-2d analogue), G12V; conditions: geometric mean, read-out: KRAS GMean IC50 (uM) MUTATION: G12V
T2 construct: G12V-mutant human KRAS (amino acid residues 1-188) with FLAG tag was purified from E. coli; made in house; host or cells: E. coli

For `Cc1n[nH]c2cc(-c3ccc4c(N5C[C@H]6CC[C@@H](C5)N6)nc(OC[C@@H]5CCCN5C)nc4c3)ccc12` [P-0183, 4-((1R,5S)-3,8-diazabicyclo[3.2.1]octan-3-yl)-7-(3-methyl-1H-indazol-6-yl)-2-(((S)-1-methylpyrrolidin-2-yl)methoxy)quinazoline], the IC50 [1] was 100 to 1000 µM and the IC50 [2] was 10 to 100 µM.
`CN1CCC[C@H]1COc1nc(N2[C@@H]3CC[C@H]2CN(C(=O)CC2SC(=O)NC2=O)C3)c2ccc(-c3cc(O)cc4ccccc34)cc2n1` (stereo partly drawn) [P-0292, 5-(2-((1R,5S)-8-(7-(3-hydroxynaphthalen-1-yl)-2-(((S)-1-methylpyrrolidin-2-yl)methoxy)quinazolin-4-yl)-3,8-diazabicyclo[3.2.1]octan-3-yl)-2-oxoethyl)thiazolidine-2,4-dione] showed an IC50 [1] of 10 to 100 µM and an IC50 [2] of 10 to 100 µM.
For `CONC(=O)N1[C@@H]2CC[C@H]1CN(c1nc(OCC3CCCN3C)nc3c(F)c(-c4cc(O)cc5ccccc45)ccc13)C2` (stereo partly drawn) [P-0420, (1R,5S)-3-(8-fluoro-7-(3-hydroxynaphthalen-1-yl)-2-((1-methylpyrrolidin-2-yl)methoxy)quinazolin-4-yl)-N-methoxy-3,8-diazabicyclo[3.2.1]octane-8-carboxamide], the IC50 [1] was 0.0001 to 10 µM and the IC50 [2] was 10 to 100 µM.
In the case of `Cc1c(N)cccc1-c1ccc2c(N3[C@@H]4CC[C@H]3CNC4)nc(OC[C@@H]3CCCN3C)nc2c1` [P-0286, 3-(4-((1R,5S)-3,8-diazabicyclo[3.2.1]octan-8-yl)-2-(((S)-1-methylpyrrolidin-2-yl)methoxy)quinazolin-7-yl)-2-methylaniline], the IC50 [1] is reported as 10 to 100 µM and the IC50 [2] is reported as 10 to 100 µM.
Compound `CN1CCC[C@H]1COc1nc(N2C[C@H]3CC[C@@H](C2)N3C(=O)CC#N)c2ccc(-c3cc(O)cc4ccccc34)cc2n1` [P-0368, 3-((1R,5S)-3-(7-(3-hydroxynaphthalen-1-yl)-2-(((S)-1-methylpyrrolidin-2-yl)methoxy)quinazolin-4-yl)-3,8-diazabicyclo[3.2.1]octan-8-yl)-3-oxopropanenitrile] has an IC50 [1] of 0.0001 to 10 µM and an IC50 [2] of 0.0001 to 10 µM.
Compound `COc1cccc(F)c1-c1c(Cl)cc2c(N3C[C@H]4CC[C@@H](C3)N4)nc(Oc3cccc4c3CN(C)CC4)nc2c1F` [P-0335, 4-((1R,5S)-3,8-diazabicyclo[3.2.1]octan-3-yl)-6-chloro-8-fluoro-7-(2-fluoro-6-methoxyphenyl)-2-((2-methyl-1,2,3,4-tetrahydroisoquinolin-8-yl)oxy)quinazoline] has an IC50 [1] of 10 to 100 µM and an IC50 [2] of 10 to 100 µM.
`Oc1cc(-c2ccc3c(N4C[C@H]5CC[C@@H](C4)N5)nc(N4CC(N5CC(O)C5)C4)nc3c2F)c2ccccc2c1` [P-0632, 1′-(4-((1R,5S)-3,8-diazabicyclo[3.2.1]octan-3-yl)-8-fluoro-7-(3-hydroxynaphthalen-1-yl)quinazolin-2-yl)-[1,3′-biazetidin]-3-ol] gave an IC50 [1] of 0.0001 to 10 µM and an IC50 [2] of 0.0001 to 10 µM.
`CN1CCc2c(cccc2Oc2nc(N3C[C@H]4CC[C@@H](C3)N4)c3ccc(-c4c(O)cccc4F)c(F)c3n2)C1` [P-0334, 2-(4-((1R,5S)-3,8-diazabicyclo[3.2.1]octan-3-yl)-8-fluoro-2-((2-methyl-1,2,3,4-tetrahydroisoquinolin-5-yl)oxy)quinazolin-7-yl)-3-fluorophenol] was tested, and the IC50 [1] was 10 to 100 µM and the IC50 [2] was 10 to 100 µM.
With `CN1CCC[C@H]1COc1nc(N2C[C@H]3CC[C@@H](C2)N3)c2ccc(-c3c[nH]c4ccc(Cl)cc34)cc2n1` [P-0253, 4-((1R,5S)-3,8-diazabicyclo[3.2.1]octan-3-yl)-7-(5-chloro-1H-indol-3-yl)-2-(((S)-1-methylpyrrolidin-2-yl)methoxy)quinazoline] the IC50 [1] was 10 to 100 µM and the IC50 [2] was 100 to 1000 µM.
Work on `CNC(=O)C(C)(C)COc1nc(N2C[C@H]3CC[C@@H](C2)N3)c2ccc(-c3cc(O)cc4ccccc34)c(F)c2n1` [P-0621, 3-((4-((1R,5S)-3,8-diazabicyclo[3.2.1]octan-3-yl)-8-fluoro-7-(3-hydroxynaphthalen-1-yl)quinazolin-2-yl)oxy)-N,2,2-trimethylpropanamide] yielded an IC50 [1] of 0.0001 to 10 µM and an IC50 [2] of 10 to 100 µM.
In the case of `CN1CCC[C@H]1COc1nc(N2[C@@H]3CC[C@H]2CN(C(=O)Cc2n[nH]c4ccccc24)C3)c2ccc(-c3cc(O)cc4ccccc34)cc2n1` [P-0312, 1-((1R,5S)-8-(7-(3-hydroxynaphthalen-1-yl)-2-(((S)-1-methylpyrrolidin-2-yl)methoxy)quinazolin-4-yl)-3,8-diazabicyclo[3.2.1]octan-3-yl)-2-(1H-indazol-3-yl)ethan-1-one], the IC50 [1] is reported as 10 to 100 µM and the IC50 [2] is reported as 10 to 100 µM.
With `CN1CCC[C@H]1COc1nc(N2[C@@H]3CC[C@H]2CN(CC(=O)C2CCNCC2)C3)c2ccc(-c3cc(O)cc4ccccc34)cc2n1` [P-0345, 2-((1R,5S)-8-(7-(3-hydroxynaphthalen-1-yl)-2-(((S)-1-methylpyrrolidin-2-yl)methoxy)quinazolin-4-yl)-3,8-diazabicyclo[3.2.1]octan-3-yl)-1-(piperidin-4-yl)ethan-1-one] the IC50 [1] was 0.0001 to 10 µM and the IC50 [2] was 10 to 100 µM.
For `CN(C)c1ccc(Nc2nc(N3C[C@H]4CC[C@@H](C3)N4)c3cc(Cl)c(-c4c(O)cccc4F)c(F)c3n2)cc1` [P-0391, 2-(4-((1R,5S)-3,8-diazabicyclo[3.2.1]octan-3-yl)-6-chloro-2-((4-(dimethylamino)phenyl)amino)-8-fluoroquinazolin-7-yl)-3-fluorophenol], the IC50 [1] was 0.0001 to 10 µM and the IC50 [2] was 0.0001 to 10 µM.
`CN1CCC[C@H]1COc1nc(N2[C@@H]3CC[C@H]2CN(C(=O)CNC(N)=O)C3)c2ccc(-c3cc(O)cc4ccccc34)cc2n1` [P-0317, 1-(2-((1R,5S)-8-(7-(3-hydroxynaphthalen-1-yl)-2-(((S)-1-methylpyrrolidin-2-yl)methoxy)quinazolin-4-yl)-3,8-diazabicyclo[3.2.1]octan-3-yl)-2-oxoethyl)urea] showed an IC50 [1] of 10 to 100 µM and an IC50 [2] of 10 to 100 µM.
`CN1CCC[C@H]1COc1nc(N2[C@@H]3CC[C@H]2CN(C(=O)CC(N)=O)C3)c2ccc(-c3cc(O)cc4ccccc34)cc2n1` [P-0227, 3-((1R,5S)-8-(7-(3-hydroxynaphthalen-1-yl)-2-(((S)-1-methylpyrrolidin-2-yl)methoxy)quinazolin-4-yl)-3,8-diazabicyclo[3.2.1]octan-3-yl)-3-oxopropanamide] gave an IC50 [1] of 10 to 100 µM and an IC50 [2] of 100 to 1000 µM.
Work on `CN(C)C(=O)CCc1nc(N2[C@@H]3CC[C@H]2CNC3)c2ccc(-c3cc(O)cc4ccccc34)cc2n1` [P-0199, 3-(4-((1R,5S)-3,8-diazabicyclo[3.2.1]octan-8-yl)-7-(3-hydroxynaphthalen-1-yl)quinazolin-2-yl)-N,N-dimethylpropanamide] yielded an IC50 [1] of 10 to 100 µM and an IC50 [2] of 10 to 100 µM.
`CN1CCC[C@H]1COc1nc(N2CCC3CCC(C2)N3)c2cc(Cl)c(-c3cc(O)cc4ccccc34)c(F)c2n1` (stereo partly drawn) [P-0046, 4-(4-(3,9-diazabicyclo[4.2.1]nonan-3-yl)-6-chloro-8-fluoro-2-(((S)-1-methylpyrrolidin-2-yl)methoxy)quinazolin-7-yl)naphthalen-2-ol] was tested, and the IC50 [1] was 0.0001 to 10 µM and the IC50 [2] was 10 to 100 µM.
`CN1CCC[C@H]1COc1nc(N2C[C@H]3CC[C@@H](C2)N3CC(O)CO)c2ccc(-c3cc(O)cc4ccccc34)c(F)c2n1` (stereo partly drawn) [P-0472, 3-((1R,5S)-3-(8-fluoro-7-(3-hydroxynaphthalen-1-yl)-2-(((S)-1-methylpyrrolidin-2-yl)methoxy)quinazolin-4-yl)-3,8-diazabicyclo[3.2.1]octan-8-yl)propane-1,2-diol] showed an IC50 [1] of 0.0001 to 10 µM and an IC50 [2] of 0.0001 to 10 µM.
With `CN1CCC[C@H]1COc1nc(N2C[C@H]3CC[C@@H](C2)N3C(=O)Cc2cnn(C)c2)c2ccc(-c3cc(O)cc4ccccc34)c(F)c2n1` [P-0402, 1-((1R,5S)-3-(8-fluoro-7-(3-hydroxynaphthalen-1-yl)-2-(((S)-1-methylpyrrolidin-2-yl)methoxy)quinazolin-4-yl)-3,8-diazabicyclo[3.2.1]octan-8-yl)-2-(1-methyl-1H-pyrazol-4-yl)ethan-1-one] the IC50 [1] was 0.0001 to 10 µM and the IC50 [2] was 0.0001 to 10 µM.
With `CN1CCC[C@H]1COc1nc(N2C[C@H]3CC[C@@H](C2)N3)c2ccc(-c3cc4ccccc4s3)cc2n1` [P-0153, 7-(benzo[b]thiophen-2-yl)-4-((1R,5S)-3,8-diazabicyclo[3.2.1]octan-3-yl)-2-(((S)-1-methylpyrrolidin-2-yl)methoxy)quinazoline] the IC50 [1] was 10 to 100 µM and the IC50 [2] was 100 to 1000 µM.
`COCCS(=O)(=O)N1[C@@H]2CC[C@H]1CN(c1nc(OCC34CCCN3CCC4)nc3cc(-c4cc(O)cc5ccccc45)ccc13)C2` [P-0139, 4-(4-((1R,5S)-8-((2-methoxyethyl)sulfonyl)-3,8-diazabicyclo[3.2.1]octan-3-yl)-2-((tetrahydro-1H-pyrrolizin-7a(5H)-yl)methoxy)quinazolin-7-yl)naphthalen-2-ol] gave an IC50 [1] of 10 to 100 µM and an IC50 [2] of 10 to 100 µM.
`Cc1cccc2c1N(c1ccc3c(N4C[C@H]5CC[C@@H](C4)N5)nc(OC[C@@H]4CCCN4C)nc3c1)CC(O)C2` (stereo partly drawn) [P-0406, 1-(4-((1R,5S)-3,8-diazabicyclo[3.2.1]octan-3-yl)-2-(((S)-1-methylpyrrolidin-2-yl)methoxy)quinazolin-7-yl)-8-methyl-1,2,3,4-tetrahydroquinolin-3-ol] showed an IC50 [1] of 10 to 100 µM and an IC50 [2] of 100 to 1000 µM.
Compound `OCCCN1[C@@H]2CC[C@H]1CN(c1nc(OCC34CCCN3CCC4)nc3c(F)c(-c4cc(O)cc5ccccc45)ccc13)C2` [P-0628, 4-(8-fluoro-4-((1R,5S)-8-(3-hydroxypropyl)-3,8-diazabicyclo[3.2.1]octan-3-yl)-2-((tetrahydro-1H-pyrrolizin-7a(5H)-yl)methoxy)quinazolin-7-yl)naphthalen-2-ol] has an IC50 [1] of 0.0001 to 10 µM and an IC50 [2] of 0.0001 to 10 µM.
